The nature of the assay: rapid insulin sensitivity test (RIST) in human volunteers before and after a standardized test meal. The class given is in vivo. The settings on record: 50 mU/kg insulin bolus i.v., average from 5 subjects. Here is the method: Human volunteers were fasted overnight and submitted to a RIST. A stable glycemic baseline level was established by determining three consecutive stable venous glucose concentrations obtained at 5-minute intervals. […] Arterialized venous glucose concentrations were determined at 2-minute intervals and a variable glucose infusion pump was adjusted to maintain a constant blood glucose level. After completion of the first RIST index, a standardized meal consisting of a wheat-based biscuit containing 50 grams of carbohydrate was consumed within a 10-minute period. Venous glucose measurements were determined at 5-minute intervals until a new stable baseline was obtained whereupon a second RIST was carried out.
In FIG. 6, the difference between the results is plotted and is attributed to HISS action. […] Thus, the test meal provided a sufficient feeding signal to allow HISS release.

We go through one substance from US20070009438A1, “Method for diagnosing diabetes type 2 using standardized mixed meal and calculated index values” (DiaMedica Inc., priority 2003, published 2007).

Take insulin: the “RIST index (glucose disposal in response to the insulin bolus)” value (human subjects after test meal (wheat-based biscuit, 50 grams of carbohydrate)) was found to be 502 mg/kg and the “RIST index (glucose disposal in response to the insulin bolus)” value (human subjects fasted overnight) was 180 mg/kg.
